Values of other authors, collected in US20030087789A1, “Emulsion containing a plant extract, method for producing said emulsion and for obtaining a plant extract” (priority 2000, published 2003).

What was measured:
Escherichia coli = settings: intestinal Escherichia coli

For `C=C(C)[C@@H]1CC[C@]2(CO)CC[C@]3(C)[C@H](CC[C@@H]4[C@@]5(C)CC[C@H](O)C(C)(C)[C@@H]5CC[C@]43C)[C@@H]12` [betulin], the “bacteriostatic and bactericidal effect” value (Staphylococcus aureus) is listed as “bacteriostatic and bactericidal effect”, the “bacteriostatic and bactericidal effect” value (Salmonella typhi) is listed as “bacteriostatic and bactericidal effect” and the “bacteriostatic and bactericidal effect” value (Shigella flexneri) is listed as “bacteriostatic and bactericidal effect”. For the same compound, the “solubility in cold petroleum ether” value (cold petroleum ether (C5-C8 CH)) was “practically insoluble”, the “solubility in dichloromethane, chloroform and cold organic solvents” value (dichloromethane, chloroform and cold organic solvents) was “only slightly soluble” and the “solubility in pyridine and tetrahydrofuran” value (pyridine and tetrahydrofuran) was “soluble”. The solubility in water (water) was “practically insoluble”, the “solubility in water or water-alcohol mixtures” value (water or water-alcohol mixtures (up to 60% alcohol)) was “insoluble” and the “bacteriostatic and bactericidal effect” value (Escherichia coli) was “bacteriostatic and bactericidal effect”.
